According to PMC10974290, “Biocatalytic Synthesis of Coumarin S-Glycosides: Towards Non-Cytotoxic Probes for Biomedical Imaging and Sensing” (Molecules, 2024):

System: HS683 (brain glioma)
Assay: MTT cell proliferation assay, HS683
Type: cell-based
Details: Homo sapiens, Hs 683, 72 h incubation, 95% confidence interval in parentheses
Procedure: To use these S-glycosidic compounds in cellulo, the potential impact of the glycosidic linkage nature on the anticancer activity was assessed. The S-glycoside derivatives and the 7-MC were tested against four human cancer cell lines and a healthy one, namely A549 (lung carcinoma), HS-683 (glioma cancer), MCF-7 (breast adenocarcinoma), SK-MEL-28 (melanoma skin cancer), and HaCaT (keratinocyte normal skin), using MTT (thiazolyl blue tetrazolium bromide, Sigma-Aldrich, St. Louis, MO, USA) assay, as previously described in the literature. The selected reference drugs were 5-fluorouracil (5-FU) and etoposide.
Cell proliferation of five distinct cell lines was evaluated using the colorimetric MTT (thiazolyl blue tetrazolium bromide, Sigma) assay. Human keratinocyte normal skin HaCaT was cultivated in DMEM supplemented with 4.5 g/L glucose, 2 mM L-glutamine, and 10% FBS. Cancer cell lines and their respective growth media were obtained from CLS Cell Line Service GmbH (Eppelheim, Germany). Specifically, human skin melanoma SK-MEL-28 and human brain glioma HS683 were cultivated in DMEM with identical supplements as HaCaT cells. The human lung carcinoma cell line A-549 was grown in DMEM/Ham’s F12 (1:1) medium supplemented with 2 mM L-glutamine and 5% FBS. Additionally, human breast adenoma carcinoma MCF-7 cells were sustained in EMEM supplemented with 2 mM L-glutamine, sodium pyruvate, non-essential amino acids (NEAAs), 10 µg/mL insulin human, and 10% FBS. The MTT assay relies on the reduction of the yellow product thiazolyl blue tetrazolium bromide (MTT) to formazan, a purple-blue product, by mitochondrial dehydrogenases in metabolically active cells. The number of living cells after incubation in the presence (or absence, control) of the tested molecules is directly proportional to the blue color, which was measured by spectrophotometry. To perform the assay, cells were initially seeded at a density of 2500 cells/mL in 96-well culture plates (Nunc™ Edge 2.0, Fisher) and allowed to adhere and proliferate over a 24-hour incubation period. Following this, the cells were treated with various concentrations of the tested compounds, which were previously prepared as serial dilutions and dissolved in 0.1% DMSO. These stable solutions guarantee the consistency of experimental conditions over extended periods. Each concentration of the tested compounds underwent triplicate testing (n = 3), and cells were subsequently incubated for 72 h to allow for thorough evaluation. Following this incubation period, MTT reagent (5 mg/mL solution in PBS) was introduced to each well (10% v/v), and cells were further incubated for 4 h. Then, the culture medium was carefully removed, and the resulting blue formazan crystals were dissolved in 100 µL of 100% DMSO. Absorbance readings were taken at 540 nm, referencing a wavelength of 620 nm, using a spectrophotometer. In determining the IC50, the absorbance of serial dilutions of each cell line, treated under identical conditions but without the presence of the tested compounds, was measured.

| IC50 [µM] | Compound |
| --- | --- |
| > 1000 | Cc1cc(=O)oc2cc(S[C@@H]3O[C@H](C(=O)O)[C@@H](O)[C@H](O)[C@H]3O)ccc12 [Compound S-1, 4-Methylumbellifer-7-yl 1-thio-β-D-glucopyranosiduronic acid] |
| 275 | Cc1cc(=O)oc2cc(S[C@@H]3OC[C@@H](O)[C@H](O)[C@H]3O)ccc12 [Compound S-2, 4-Methylumbellifer-7-yl 1-thio-β-D-xylopyranoside] |
| > 1000 | Cc1cc(=O)oc2cc(S[C@@H]3O[C@H](CO)[C@@H](O)[C@H](O)[C@H]3O)ccc12 [Compound S-3, 4-Methylumbellifer-7-yl 1-thio-β-D-glucopyranoside] |
| > 1000 | Cc1cc(=O)oc2cc(S[C@@H]3O[C@H](CO)[C@H](O)[C@H](O)[C@H]3O)ccc12 [Compound S-4, 4-Methylumbellifer-7-yl 1-thio-β-D-galactopyranoside] |
| > 1000 | Cc1cc(=O)oc2cc(S[C@@H]3O[C@H](C)[C@H](O)[C@H](O)[C@H]3O)ccc12 [Compound S-5, 4-Methylumbellifer-7-yl 1-thio-β-D-fucopyranoside] |
| > 1000 | Cc1cc(=O)oc2cc(S[C@H]3O[C@H](CO)[C@H](O)[C@H](O)[C@H]3O)ccc12 [Compound S-6, 4-Methylumbellifer-7-yl 1-thio-α-D-galactopyranoside] |
